Legend:
[1] = system: SW480; test: cells; conditions: Homo sapiens
[2] = biological target: T1, Thymidylate synthase (Escherichia coli, UniProt C3SWJ7); test: Inhibition against thymidylate synthase (TS) in Escherichia coli; conditions: read-out: I50
[3] = biological target: T2, Thymidylate synthase (Homo sapiens, UniProt P04818)
Target sequence in this assay (P04818 whole entry): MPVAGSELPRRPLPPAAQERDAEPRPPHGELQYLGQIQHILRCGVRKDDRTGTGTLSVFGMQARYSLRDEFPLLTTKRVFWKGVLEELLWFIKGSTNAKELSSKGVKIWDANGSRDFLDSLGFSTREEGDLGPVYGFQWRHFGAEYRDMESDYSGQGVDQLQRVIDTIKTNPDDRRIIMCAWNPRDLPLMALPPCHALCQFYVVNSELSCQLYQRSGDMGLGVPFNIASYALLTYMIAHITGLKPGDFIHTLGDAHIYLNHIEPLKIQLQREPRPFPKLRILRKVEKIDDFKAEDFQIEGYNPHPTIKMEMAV

[4] = biological target: T1, Thymidylate synthase; test: Tested against thymidylate synthase (TS) in E. coli; conditions: read-out: I50
[5] = biological target: T2, Thymidylate synthase; test: Tested for inhibition against thymidylate synthase (TS) in human
Target sequence in this assay (P04818 whole entry): as above

[6] = biological target: Thymidylate synthase (Escherichia coli) (UniProt C3SWJ7); test: Tested for percent inhibition against thymidylate synthase (TS) in Escherichia coli at 764.0 uM
[7] = biological target: T1, Thymidylate synthase; test: Tested for inhibition against thymidylate synthase (TS) in Escherichia coli
[8] = system: Thymidylate synthase (Bos taurus); test: Tested against thymidylate synthase (TS) in calf thymus at 765 uM
[9] = system: Thymidylate synthase (Candida albicans); test: Tested for percent inhibition against thymidylate synthase (TS) in Candida albicans at 63.2 uM
[10] = biological target: T2, Thymidylate synthase; test: Tested for percent inhibition against thymidylate synthase (TS) in human at 63 uM
Target sequence in this assay (P04818 2-313 limits assumed): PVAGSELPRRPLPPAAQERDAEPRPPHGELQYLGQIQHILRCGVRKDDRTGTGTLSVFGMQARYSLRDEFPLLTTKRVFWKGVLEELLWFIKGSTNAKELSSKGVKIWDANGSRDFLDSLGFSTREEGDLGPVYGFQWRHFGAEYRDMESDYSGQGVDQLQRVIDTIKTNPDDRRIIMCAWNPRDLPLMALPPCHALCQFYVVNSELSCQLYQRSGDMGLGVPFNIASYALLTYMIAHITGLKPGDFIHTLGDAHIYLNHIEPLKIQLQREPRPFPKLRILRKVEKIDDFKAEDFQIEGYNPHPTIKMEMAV

[11] = biological target: Thymidylate synthase (Escherichia coli) (UniProt C3SWJ7); test: Tested for percent inhibition against thymidylate synthase (TS) in Escherichia coli at 63.2 uM

T1 sequence (C3SWJ7 whole entry): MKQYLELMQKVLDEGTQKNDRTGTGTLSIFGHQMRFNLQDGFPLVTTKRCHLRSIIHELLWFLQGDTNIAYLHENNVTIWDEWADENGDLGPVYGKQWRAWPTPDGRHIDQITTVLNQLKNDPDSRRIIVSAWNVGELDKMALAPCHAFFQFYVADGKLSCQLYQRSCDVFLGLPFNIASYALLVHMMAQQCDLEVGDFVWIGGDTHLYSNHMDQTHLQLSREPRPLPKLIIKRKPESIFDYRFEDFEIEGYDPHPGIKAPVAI
Thymidylate synthase (Escherichia coli), sequence (C3SWJ7 1-264): as the sequence (C3SWJ7 whole entry) above

SMILES | IC50 [1] [µM] | IC50 [2] [µM] | IC50 [3] [µM] | other results
CCc1ccc2ccc3nc(N)nc(O)c3c2c1 | 20 | 7.7 | 0.49 | –
Nc1nc2c(c(=O)[nH]1)-c1cc(Br)c(N)cc1CC2 | 15 | 2.9 | – | –
CCOc1ccc2ccc3nc(N)nc(O)c3c2c1 | 20 | – | 4.2 | –
Nc1nc2ccc3ccccc3c2c(=O)[nH]1 | 52 | 7 | 1.08 | –
Cc1nc(O)c2c(n1)CCc1ccc(I)cc1-2 | – | – | – | IC50 [4]: 19.8 µM
Nc1nc2ccc3c(I)cccc3c2c(=O)[nH]1 | 10 | 6.3 | 1.31 | –
Nc1nc2ccc3ccc(Cl)cc3c2c(=O)[nH]1 | 3 | 0.52 | 0.025 | –
Nc1nc(O)c2c(n1)CCc1ccccc1-2 | > 100 | 7 | – | –
COc1ccc2ccc3nc(N)nc(O)c3c2c1 | 20 | 5 | – | IC50 ([5]; read-out: I50): 1.6 µM
Nc1nc2ccc3cc([N+](=O)[O-])c(Br)cc3c2c(=O)[nH]1 | 2.5 | 31 | 3.12 | –
COc1ccc2c(c1)CCc1nc(N)nc(O)c1-2 | – | 240 | – | –
COCc1cc2nc(N)nc(O)c2c2ccccc12 | 60 | – | 15 | –
Nc1nc(O)c2c(ccc3cc(N)c(Br)cc32)n1 | 15 | 2.8 | 0.34 | –
Nc1ccc2c(ccc3nc(N)nc(O)c32)c1 | 100 | – | 7.5 | –
Cc1ccc2ccc3nc(N)nc(O)c3c2c1 | 30 | 1.47 | 0.178 | –
Cc1nc(O)c2c(ccc3c(Cl)cccc32)n1 | 50 | – | – | –
CC1(C)Cc2nc(N)nc(O)c2-c2ccccc21 | – | 49.6 | 43.9 | –
Nc1nc(O)c2c(ccc3cc(F)cc([N+](=O)[O-])c32)n1 | 50 | – | – | inhibition [6]: 41%
Nc1nc(O)c2c(ccc3ccc(Br)cc32)n1 | 10 | 0.267 | 0.022 | –
CC1Cc2nc(N)nc(O)c2-c2cc(Cl)ccc21 (stereo unspecified) | – | 3.6 | 0.37 | –
Cc1cc(C)c2c(c1)-c1c(nc(N)[nH]c1=O)CC2 | > 100 | – | – | IC50 [7]: 13 µM
Nc1nc(O)c2c(ccc3ccc(I)cc32)n1 | 5 | 0.323 | 0.022 | –
Nc1nc(O)c2c(ccc3ccc(Br)c([N+](=O)[O-])c32)n1 | 20 | – | 0.23 | –
Nc1nc2ccc3c(Cl)cccc3c2c(=O)[nH]1 | – | – | 26 | –

SMILES | IC50 [1] [µM] | IC50 [2] [µM] | IC50 [3] [µM] | other results
Nc1nc(O)c2c(ccc3c([N+](=O)[O-])c(F)ccc32)n1 | 30 | 403 | 552 | –
CCSc1ccc2c(c1)-c1c(nc(N)[nH]c1=O)CC2 | 40 | 31.7 | – | –
Nc1nc2ccc3c(N)c(Br)ccc3c2c(=O)[nH]1 | 20 | – | 16.8 | –
Nc1nc2c(c(=O)[nH]1)-c1cc(O)ccc1CC2 | > 100 | 12 | 8.4 | –
Cc1nc2c(c(=O)[nH]1)-c1ccccc1CC2 | > 100 | 119 | – | –
Nc1nc2ccc3cc([N+](=O)[O-])cc([N+](=O)[O-])c3c2c(=O)[nH]1 | – | 104 | 145 | –
Cc1nc(O)c2c(n1)CCc1ccc(F)cc1-2 | > 100 | 32.8 | – | –
Nc1nc2ccc3cc(Cl)ccc3c2c(=O)[nH]1 | – | – | 45.4 | –
Cc1cc(C)c2ccc3nc(N)[nH]c(=O)c3c2c1 | – | 5 | – | –
Cc1ccc2c(c1)-c1c(O)nc(N)nc1CC2 | > 100 | 5.8 | 0.72 | –
O=CNc1nc(O)c2c(ccc3ccc(Br)cc32)n1 | 7 | – | 0.54 | –
Cc1cccc2c1CCc1nc(N)[nH]c(=O)c1-2 | – | 59 | – | –
Cc1cc2nc(N)[nH]c(=O)c2c2ccc(Cl)cc12 | – | – | 6.9 | –
Nc1nc(O)c2c(ccc3cc(Br)c([N+](=O)[O-])cc32)n1 | – | 28 | – | –
Cc1nc(O)c2c(ccc3c(I)cccc32)n1 | 50 | – | – | –
Nc1ccc2c(c1)CCc1nc(N)[nH]c(=O)c1-2 | – | 89 | – | –
Nc1ccc2c(c1)-c1c(nc(N)[nH]c1=O)CC2 | > 100 | 16.9 | 13.5 | –
Nc1nc2c(c(=O)[nH]1)-c1cc(Cl)c(Cl)cc1CC2 | – | 6.7 | – | IC50 [5]: 2.96 µM
Nc1nc(O)c2c(ccc3cc(F)cc(N)c32)n1 | 70 | 47.1 | 73.8 | –
CSc1ccc2c(c1)-c1c(nc(N)[nH]c1=O)CC2 | 60 | 1.2 | – | –
Nc1nc(O)c2c(n1)CCc1ccc(F)cc1-2 | 80 | 4 | – | –
Cc1nc(O)c2c(ccc3ccc(Cl)cc32)n1 | 10 | – | – | –
C#Cc1ccc2c(c1)-c1c(nc(N)[nH]c1=O)CC2 | 35 | 26.3 | – | –
Nc1ccc2ccc3nc(N)nc(O)c3c2c1 | 80 | 0.6 | 0.63 | –

SMILES | IC50 [1] [µM] | IC50 [2] [µM] | IC50 [3] [µM] | other results
Nc1nc2c(c(=O)[nH]1)-c1cccc(F)c1CC2 | > 100 | 99 | 83.6 | –
COc1ccc2c(c1)-c1c(O)nc(N)nc1CC2 | 25 | 6 | 3.6 | –
Nc1nc2c(c(=O)[nH]1)-c1cc(Br)c([N+](=O)[O-])cc1CC2 | 12 | 97.5 | – | –
Nc1nc2c(c(=O)[nH]1)-c1ccc(Cl)cc1CC2 | – | 334 | – | –
C#Cc1ccc2ccc3nc(N)nc(O)c3c2c1 | 20 | 14 | 0.6 | –
Nc1nc2ccc3c(F)cccc3c2c(=O)[nH]1 | 30 | 208 | 25 | –
Nc1nc(O)c2c(n1)CCc1ccc(Br)cc1-2 | 25 | 2 | – | –
Nc1nc2ccc3cc(F)ccc3c2c(=O)[nH]1 | 50 | 231 | 44 | –
Nc1nc(O)c2c(ccc3ccc(F)cc32)n1 | 10 | 2.4 | 0.5 | –
C=Cc1ccc2ccc3nc(N)nc(O)c3c2c1 | 6 | 1.1 | 0.12 | –
Nc1nc(O)c2c(n1)CCc1ccc(I)cc1-2 | 15 | 5 | – | –
Nc1nc2c(c(=O)[nH]1)-c1ccc3ccccc3c1CC2 | 30 | – | – | IC50 [7]: 36 µM
Oc1nc(NCc2ccccc2)nc2ccc3c(Br)cccc3c12 | 60 | 0.63 | 0.52 | –
Nc1nc2ccc3cccc([N+](=O)[O-])c3c2c(=O)[nH]1 | > 100 | 9.8 | 2.31 | –
CC1Cc2nc(N)nc(O)c2-c2ccccc21 (stereo unspecified) | – | 23 | – | –
Cc1nc(O)c2c(ccc3ccc(Br)cc32)n1 | 6 | 6.9 | – | –
Nc1nc(O)c2c(cc(CO)c3ccccc32)n1 | > 100 | 102 | 8.6 | –
COc1cccc2c1CCc1nc(N)nc(O)c1-2 | – | 250 | – | –
Nc1nc2ccc3c([N+](=O)[O-])c(Br)ccc3c2c(=O)[nH]1 | – | 104 | – | –
Cc1nc2c(c(=O)[nH]1)-c1cc(Cl)ccc1CC2 | > 100 | – | – | IC50 [4]: 18.8 µM
CSc1ccc2ccc3nc(N)nc(O)c3c2c1 | – | 1.6 | 0.46 | –
Cc1nc2c(c(=O)[nH]1)-c1cccc(Cl)c1CC2 | > 100 | – | 193 | –
Nc1nc(O)c2c(ccc3c(N)cccc32)n1 | > 100 | 39 | 15.2 | –
CCSc1ccc2ccc3nc(N)nc(O)c3c2c1 | – | 4.3 | 3.28 | –

SMILES | IC50 [1] [µM] | IC50 [2] [µM] | IC50 [3] [µM] | other results
COc1cc2c(cc1OC)-c1c(O)nc(N)nc1CC2 | – | 762 | – | inhibition [8]: 25%
Cc1nc(O)c2c(ccc3c(Br)cccc32)n1 | 50 | – | – | –
Cc1nc(O)c2c(ccc3ccc(F)cc32)n1 | 100 | – | – | IC50 [4]: 29.6 µM
Cc1cc2nc(N)nc(O)c2c2cc(Cl)ccc12 | 2 | 0.17 | 0.02 | –
Cc1cccc2c1ccc1nc(N)nc(O)c12 | 35 | 18.1 | 7.5 | –
Nc1nc2c(c(=O)[nH]1)-c1ccc(F)cc1CC2 | 80 | 750 | – | –
Oc1nc(NCc2ccccc2)nc2ccc3ccc(Cl)cc3c12 | 12 | – | – | –
Nc1nc2ccc3c(Br)c(N)c(Br)cc3c2c(=O)[nH]1 | – | 25 | – | –
Cc1nc2c(c(=O)[nH]1)-c1cc(Br)ccc1CC2 | 65 | 8.69 | – | –
Cc1cc2nc(N)[nH]c(=O)c2c2ccccc12 | – | 1 | – | –
Nc1nc2ccc3ccc(O)cc3c2c(=O)[nH]1 | 40 | 1.84 | 0.48 | –
Nc1cc(N)c2c(ccc3nc(N)nc(O)c32)c1 | > 100 | 5.12 | 7.8 | –
Nc1nc2c(c(=O)[nH]1)-c1cccc(Br)c1CC2 | – | 109 | – | –
Nc1nc(O)c2c(ccc3c([N+](=O)[O-])cccc32)n1 | – | – | – | inhibition [9]: 0%; inhibition [10]: 23%; inhibition [11]: 29%
Nc1nc2ccc3cc(F)cc([N+](=O)[O-])c3c2c(=O)[nH]1 | – | – | 34.5 | –
Nc1nc2c(c(=O)[nH]1)-c1cc(Cl)ccc1CC2 | 25 | 1.6 | – | –
Nc1nc2ccc3cc(Cl)c(Cl)cc3c2c(=O)[nH]1 | 20 | 5.4 | 0.71 | –
Nc1nc(O)c2c(ccc3ccc(Br)c(N)c32)n1 | 30 | 0.64 | 0.36 | –
Cc1nc(O)c2c(ccc3ccccc32)n1 | > 100 | – | – | IC50 [4]: 30.1 µM
Nc1nc(O)c2c(n1)CCc1cc([N+](=O)[O-])ccc1-2 | – | 43 | – | –
Nc1nc2ccc3c(Br)cccc3c2c(=O)[nH]1 | – | – | 8.9 | –

Reference: ChEMBL document CHEMBL1126757, “Benzoquinazoline inhibitors of thymidylate synthase: enzyme inhibitory activity and cytotoxicity of some 3-amino- and 3-methylbenzo[f]quinazolin-1(2H)-ones” (J Med Chem, 1993)
